Measured values taken from patent US6284910A, “Farnesyl pyrophosphate analogs” (University of Kentucky Research Foundation, priority 1999, dated 2001).
Entries after “also recorded” stand apart in the source; their conditions may differ.

What was measured:
FTase = FTase (Rattus norvegicus, UniProt Q02293+Q04631); assay: FTase-catalyzed transfer of labeled FPP analogs to p21^H-ras (substrate assay); format: biochemical; design: H-Ras is only the protein substrate; settings: for transfer to p21^H-ras by FTase, in words: in vitro
Method: FIG. 4. Transfer of Anilinogeranyl from [^3 H]AGPP to p21^Ha-ras by Farnesyltransferase. (A) Each reaction contained 1 μM [^3 H]AGPP (37,400 dpm/pmol) and 10 ng of recombinant FTase in the absence (triangles) or presence (circles) of 5 μM p21^Ha-ras Duplicate samples were incubated for the indicated times at 37° C., and ethanol-HCl precipitated radioactivity was measures as described under "Experimental Procedures". […] The gel was treated with Amplify solution (Amersham), dried, and exposed to Kodak X-OMAT AR film for 2 days at -70° C. The migration of molecular weight markers placed in a adjacent lane is shown. (B) The AGPP substrate saturation curve for FTase was determined by varying the amount of [^3 H]AGPP in the standard reaction described above. Assays were carried out in duplicate for 30 min at 37° C., and the ethanol-HCl precipitable radioactivity measured. The data is representative of three independent experiments.
FIG. 5. […] Farnesyltransferase (10 ng) was incubated in a final volume of 25 μl in the presence of 1.0 μM [^3 H]AGPP or [^3 H]FPP and 5 μM wild-type p21^Ha-ras. After incubation for 30 min at 37° C., the amount of [^3 H]prenyl transferred to p21^Ha-ras was determined as described under "Experimental Procedures". Each value is the average of duplicate incubations and is representative of five separate experiments.
(§1) Assay for Farnesyltransferase Activity--Farnesyltransferase activity was assayed by measuring the amount of [^3 H]farnesyl or [^3 H]anilinogeranyl transferred from [^3 H]FPP or [^3 H]AGPP to recombinant p21^H-ras, as described previously (31). Unless otherwise stated, each reaction mixture contained the following components in a final volume of 25 μl: 50 mM Tris (pH 7.4), 20 mM KCl, 0.2% octyl β-glucopyranoside, 1 mM dithiothreitol, 10-20 ng recombinant FTase, 5 μM p21^Ha-ras, 3 mM MgCl2, 50 μM ZnCl2, and 0.6 μM [^3 H]FPP (33,000 dpm/pmol; American Radiochemical Co.) or 0.1-5 μM [^3 H]AGPP (37,400 dpm/pmol). Following incubation for the indicated times at 37° C., the amount of [^3 H]prenyl transferred was measured by ethanol-HCl precipitation and filtration on glass fiber filters with modification as previously described (19). A blank value was determined in parallel incubation mixtures containing no enzyme. This blank value was subtracted from each reaction before calculating pmol [^3 H]prenyl transferred.
The observed inhibition kinetics could be a manifestation of the ability of AGPP to act as an alternative substrate for FTase. To evaluate the potential of AGPP to serve as a substrate of FTase, [^3 H]-AGPP was prepared by a similar route as described above, incorporating tritium with a specific activity of 17 Ci/mmol (synthesis to be reported elsewhere). […] The incorporated radioactivity was detected as a band of the expected molecular weight of farnesylated p21^H-ras on SDS-polyacrylamide gels (FIG. 4A, inset). […] The concentration of [^3 H]AGPP that gave half-maximal reaction velocity was approximately 0.5 μM (FIG. 4B).
FIG. 5 depicts transfer of unnatural anilinogeranyl lipid from [^3 H]AGPP and transfer of farnesyl lipid from [^3 H]FPP to H-Ras by FTase. Farnesyltransferase (10 ng) was incubated in a final volume of 25 μl in the presence of 1.0 μM [^3 H]AGPP or [^3 H]FPP and 5 μM wild-type H-Ras. After incubation for 30 min. at 37° C., the amount of [^3 H]prenyl transferred to H-Ras was determined by ethanol-HCl precipitation and scintillation counting. Each value is the average of duplicate incubations and is representative of five separate experiments.

[1] = target: T1, recombinant rat brain FTase (Rattus norvegicus, UniProt Q02293+Q04631); assay: Inhibition of FTase-catalyzed transfer of [^3 H]farnesyl from [^3 H]FPP to H-Ras; format: biochemical
T1 construct: 6xHis (N); made in house; host or cells: Sf9 insect cells (baculovirus)
Method: FIG. 2. Differential Inhibition of Farnesyltransferase and CAAX Geranylgeranyltransferase by AGPP. The assay mixtures contained (in a final volume of 25 μl) various components as described in "Experimental Procedures". After incubation for 15 min at 37° C., the amount of [^3 H]prenyl group transferred to the appropriate protein substrate [H-Ras (CVLS) for FTase and H-Ras (CVLL) for CAAX GGTase] was measured by precipitation with ethanol-HCl. The assays contained 10 ng recombinant rat FTase, 5 μM H-Ras, and 0.6 μM [^3 H]FPP (33,000 dpm/pmol) or 100 ng recombinant rat CAAX GGTase, 5 μM H-Ras CVLL, and 1 μM [^3 H]GGPP (33,000 dpm/pmol) and the indicated concentration of unlabeled AGPP. The 100% of control values were 1.1 and 5.5 pmol of [^3 H]farnesyl or [^3 H]geranylgeranyl transferred per tube. Each value is the average of duplicate incubations and is representative of two separate experiments.
FIG. 3. Inhibition of Farnesyltransferase by AGPP and I-AGPP. The enzymatic activity was measured in the presence of the various concentrations of either AGPP or I-AGPP as described in […]. The 100% control values were 1.9 and 2 pmol. Each value is the average of duplicate incubations and is representative of three separate experiments.
as §1
Inhibition of Farnesyltransferase by AGPP--AGPP was tested for its ability to inhibit recombinant rat brain FTase activity in vitro. AGPP inhibited FTase in a concentration dependent manner with an IC50 value of 0.6 μM (FIG. 2).
Kinetic analyses were carried out to investigate the mechanism of FTase inhibition by AGPP. […] The same Km value was observed when the Lineweaver-Burke plot was analyzed under different Ras and AGPP concentrations in the presence of a constant concentration of FPP. […] AGPP inhibition is reversible, since transfer of [^3 H]-FPP by FTase to Ras was restored by isolating the farnesyltransferase by gel filtration chromatography after preincubation in the presence of 50 μM AGPP (data not shown).
The assays contained 10 ng recombinant rat FTase, 5 μM H-Ras, and 0.6 μM [^3 H]FPP (33,000 dpm/pmol) or 100 ng recombinant rat CAAX GGTase, 5 μM H-Ras CVLL, and 1 μM [^3 H]GGPP (33,000 dpm/pmol) and the indicated concentration of unlabeled AGPP. The 100% of control values were 1.1 and 5.5 pmol of [^3 H]farnesyl or [^3 H]geranylgeranyl transferred per tube.

Compound: C/C(=C\COP(=O)(O)OP(=O)(O)O)CC/C=C(\C)CNc1ccccc1 [AGPP, (E,E)-8-Aniline-3,7-dimethyl-2,6-octadiene pyrophosphate]
- transfer to p21^H-ras by FTase, in words (FTase; 37° C.): transferred efficiently
- transfer to p21^H-ras by FTase, in words (FTase; 37° C., listed as [^3 H]-AGPP): kinetics of transfer are identical to those of FPP
- transfer to p21^H-ras by FTase, in words (FTase; 37° C., listed as [^3 H]AGPP): time dependent fashion; also recorded: transferred appropriately to p21^H-Ras by FTase
- transfer to p21^H-ras lacking the CVLS motif (FTase; recombinant p21^H-ras with CVLS removed): eliminated the incorporation of tritium into the protein
- concentration that gave half-maximal reaction velocity (FTase; transfer to p21^H-ras, 37° C., 30 min): approximately 0.5 μM
- IC50 ([1]; 0.6 μM [^3 H]FPP, 5 μM H-Ras, 37° C., 15 min): 600 nM
- mechanism of FTase inhibition with respect to Ha-Ras protein ([1]; constant FPP, various Ras): noncompetitive inhibitor with respect to Ha-Ras protein; also recorded: did not apparently affect the Km value for the substrate protein Ha-Ras
- mechanism of FTase inhibition with respect to FPP ([1]; double reciprocal plots, various [^3 H]FPP, constant Ras): competitive inhibitor of FTase with respect to FPP; also recorded: changed the Km value for FPP but does not alter the Vmax; also recorded: potent competitive inhibitor
- reversibility of FTase inhibition ([1]; gel filtration after preincubation with 50 μM AGPP): reversible
- inhibition of FTase, in words ([1]; in vitro, unlabeled compound): competed at essentially the same concentrations
